Measurements: patent publication EP4703359A1 (Shanghai Simr Biotechnology Co., Ltd., priority 2023, dated 2024)

Target: T1, α2-GABAA receptor (Homo sapiens, UniProt P18507+P47869)
T1 construct: expressed in transfected cells
Assay: Whole-cell patch-clamp electrophysiology, positive allosteric modulatory activity in α2-GABAAR-HEK293 cells
Type: cell-based
Details: compound 100 nM, GABA 0.10 to 0.11 µM (approximately EC7-8), normalized to reference compound CVL-865 (= 100%); for Emax at 0.1 µM: read-out: α2-GABAAR Positive allosteric modulatory activity
Source text: The α subunit, β subunit, and γ subunit are indispensable for forming a fully functional GABAA receptor. In this example, HEK293 cells stably expressing α2-GABAA receptors (α2-GABAAR) were constructed and screened respectively via liposome transfection (Felgner, P.L., et al. Proceedings of the National Academy of Sciences, 1987, 84: 7413-7417). The α2-GABAAR-HEK293 cell model co-expresses the α2 subunit (protein sequence referenced under GenBank accession number: NM_000807.4), β3 subunit (protein sequence referenced under GenBank accession number: NM_000814.5), and γ2 subunit (protein sequence referenced under GenBank accession number: NM_000816.3).
The above cell lines were subcultured. α2-GABAAR-HEK293 cells were amplified for testing the affinity of compounds to the benzodiazepine (BZD) site of GABAA receptors. Some of the α2-GABAAR-HEK293 cells in suspension during subculturing were plated on glass slides pre-treated with Poly-D-Lysine for electrophysiological testing (method reference: Patent CN 107344936 A, paragraph 0586).
The positive modulatory activity of the test drug on the α2-GABAA receptor was assessed using electrophysiological methods. The specific approach is as follows:
With regards to the concentration of the compound, the final concentration of all compounds used in the screening was 100 nM. For cell lines expressing α2-GABAA receptors, the GABA concentration was 0.10 to 0.11 µM (approximately EC7-8). Electrophysiological experiments were conducted using the whole-cell patch-clamp technique, which can be referenced to the method reported in the literature (Nickolls, S. A., et al. *British Journal of Pharmacology*, 2018, 175: 708-725). The composition of the extracellular solution (ECS) for electrophysiology was as follows: 150 mM NaCl, 5 mM KCl, 2.5 mM CaCl2, 1 mM MgCl2, 10 mM HEPES, and 10 mM glucose (pH 7.4). The intracellular solution (ICS) for electrophysiology was formulated as follows: 140 mM CsCl, 11 mM EGTA, 10 mM HEPES, 2 mM CaCl2, 1 mM MgCl2, 4 mM MgATP, and 2 mM TEA (pH 7.3). GABA (γ-aminobutyric acid) powder was dissolved in pure water to prepare a stock solution, which was subsequently diluted in ECS. The compound was initially dissolved in dimethyl sulfoxide to prepare a 4 mM stock solution, followed by stepwise dilution into GABA-ECS at corresponding concentrations. All solutions were freshly prepared prior to electrophysiological testing.
Electrophysiological signals were acquired using an EPC 10 amplifier and PatchMaster software (HEKA) or an Axon 700B amplifier and Clampex software (AXON). The recording electrode was pulled from borosilicate glass, with an electrode resistance of 4 to 6 MΩ. Extracellular administration was performed using the ALA-VC-8PG™ system. A single independently growing cell was selected. After forming a tight seal between the glass electrode and the cell membrane, the membrane was ruptured to establish the whole-cell configuration. The cell membrane potential was clamped at -60 mV and recorded in Gap-free mode. During the test, extracellular fluid was first applied externally for approximately 20 seconds. After the baseline (Iprebaseline) was stabilized, the extracellular solution was switched to GABA-ECS. At this point, the current induced by GABA (Igaba) can be detected. After approximately 10 to 20 seconds, once the current had stabilized, the extracellular solution was switched to a mixture of the compound and GABA-ECS until the current induced by both the compound and GABA (Itreatment) could be detected. Finally, the solution was switched to extracellular fluid, and the recording was terminated after 20 to 40 seconds. Only cells with a stable baseline, an absolute control current magnitude (Igaba - Iprebaseline) greater than 40 pA, and a relatively stable current within 10 to 20 seconds were used for compound testing. […]

T1 sequence (P47869 29-451): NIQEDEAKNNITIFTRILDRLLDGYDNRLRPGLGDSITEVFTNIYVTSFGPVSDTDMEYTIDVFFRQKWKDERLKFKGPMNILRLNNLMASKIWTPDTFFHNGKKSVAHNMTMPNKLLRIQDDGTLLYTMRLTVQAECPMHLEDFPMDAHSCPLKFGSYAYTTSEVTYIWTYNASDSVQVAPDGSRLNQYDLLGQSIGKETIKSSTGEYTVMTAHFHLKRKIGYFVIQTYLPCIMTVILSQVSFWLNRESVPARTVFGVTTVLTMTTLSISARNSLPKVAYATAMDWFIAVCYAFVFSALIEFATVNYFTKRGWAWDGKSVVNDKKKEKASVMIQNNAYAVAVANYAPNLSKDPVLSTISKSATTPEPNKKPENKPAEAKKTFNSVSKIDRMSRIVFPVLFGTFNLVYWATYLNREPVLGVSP
T1 sequence (P18507 40-467 isoform P18507-1 limits assumed): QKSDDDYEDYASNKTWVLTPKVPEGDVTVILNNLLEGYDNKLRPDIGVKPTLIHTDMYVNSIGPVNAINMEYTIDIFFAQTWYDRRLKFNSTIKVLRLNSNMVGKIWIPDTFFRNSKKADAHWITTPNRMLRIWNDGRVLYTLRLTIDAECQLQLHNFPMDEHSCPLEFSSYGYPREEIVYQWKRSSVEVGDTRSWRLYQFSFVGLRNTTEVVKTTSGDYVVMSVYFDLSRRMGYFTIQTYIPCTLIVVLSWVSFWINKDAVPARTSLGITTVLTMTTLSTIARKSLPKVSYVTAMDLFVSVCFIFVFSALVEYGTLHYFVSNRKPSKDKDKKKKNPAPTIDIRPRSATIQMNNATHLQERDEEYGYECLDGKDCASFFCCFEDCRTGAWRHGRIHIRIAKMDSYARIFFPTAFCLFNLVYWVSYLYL
T1 sequence (P28472 26-473 partner): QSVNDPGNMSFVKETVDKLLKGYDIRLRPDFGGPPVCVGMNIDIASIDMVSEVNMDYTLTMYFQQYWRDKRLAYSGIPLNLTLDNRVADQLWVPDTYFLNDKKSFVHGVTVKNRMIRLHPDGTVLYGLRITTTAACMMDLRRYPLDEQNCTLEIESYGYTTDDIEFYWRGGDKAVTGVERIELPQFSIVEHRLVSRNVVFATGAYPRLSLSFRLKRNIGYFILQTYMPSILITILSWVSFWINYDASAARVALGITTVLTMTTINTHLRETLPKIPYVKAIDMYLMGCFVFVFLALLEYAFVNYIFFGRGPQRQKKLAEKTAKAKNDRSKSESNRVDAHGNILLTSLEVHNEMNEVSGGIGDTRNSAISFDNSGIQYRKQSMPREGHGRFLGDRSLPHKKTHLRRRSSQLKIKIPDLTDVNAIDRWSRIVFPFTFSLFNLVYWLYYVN

SMILES	Emax at 0.1 µM [%]	α2-GABAAR Positive allosteric modulatory activity [%]
CCCNC(=O)c1nc2c(-c3cc4ncoc4cc3F)cccn2c1N [Example 98]	–	64
CCCNC(=O)c1nc2c(-c3cc(F)c4ocnc4c3)cccn2c1N [Example 99]	–	31
CC1CN(C(=O)c2nc3c(-c4c(F)ccc5ccoc45)cccn3c2N)C1 [Example 102, (3-Amino-8-(6-fluorobenzofuran-7-yl)imidazo[1,2-a]pyridin-2-yl)(3-methylazetidin-1-yl)methanone]	44	–
CCCNC(=O)c1nc2c(-c3cc(F)ccc3OC)c(F)ccn2c1N [Example 110, 3-Amino-7-fluoro-8-(5-fluoro-2-methoxyphenyl)-N-propylimidazo[1,2-a]pyridine-2-carboxamide]	141	–
CCCNC(=O)c1nc2c(-c3cc(OC)ccc3OC)c(F)ccn2c1N [Example 111]	77	–
CCCNC(=O)c1nc2c(-c3cc(F)cc(F)c3)c(F)ccn2c1N [Example 113, 3-Amino-8-(3,5-difluorophenyl)-7-fluoro-N-propylimidazo[1,2-a]pyridine-2-carboxamide]	49	–
CCCNC(=O)c1nc2c(-c3cc(OC)nnc3OC)c(F)ccn2c1N [Example 117, 3-Amino-8-(3,6-dimethoxypyridazin-4-yl)-7-fluoro-N-propylimidazo[1,2-a]pyridine-2-carboxamide]	88	–
CCCNC(=O)c1nc2c(-c3c(C#N)cccc3OC)c(F)ccn2c1N [Example 118, 3-Amino-8-(2-cyano-6-methoxyphenyl)-7-fluoro-N-propylimidazo[1,2-a]pyridine-2-carboxamide]	51	–
CCCNC(=O)c1nc2c(CC(C)C)c(F)ccn2c1N [Example 119]	–	33
CCCNC(=O)c1nc2c(-c3cnc(OC)nc3OC)c(F)ccn2c1N [Example 120, 3-Amino-8-(2,4-dimethoxypyrimidin-5-yl)-7-fluoro-N-propylimidazo[1,2-a]pyridine-2-carboxamide]	59	–
CCCNC(=O)c1nc2c(-c3ccc(F)cc3OC)c(F)ccn2c1N [Example 121, 3-Amino-7-fluoro-8-(4-fluoro-2-methoxyphenyl)-N-propylimidazo[1,2-a]pyridine-2-carboxamide]	88	–
CCCCNC(=O)c1nc2c(-c3c(F)cccc3OC)c(F)ccn2c1N [Example 124, 3-Amino-N-butyl-7-fluoro-8-(2-fluoro-6-methoxyphenyl)imidazo[1,2-a]pyridine-2-carboxamide]	90	–
COc1cccc(F)c1-c1c(F)ccn2c(N)c(C(=O)NCCC(F)(F)F)nc12 [Example 125, 3-Amino-7-fluoro-8-(2-fluoro-6-methoxyphenyl)-N-(3,3,3-trifluoropropyl)propylimidazo[1,2-a]pyridine-2-carboxamide]	–	70
CCCNC(=O)c1nc2c(-c3cccc(C#N)c3)c(F)ccn2c1N [Example 126, 3-Amino-8-(3-cyanophenyl)-7-fluoro-N-propylimidazo[1,2-a]pyridine-2-carboxamide]	99	–
CCCNC(=O)c1nc2c(-c3cc(F)cc(C#N)c3)c(F)ccn2c1N [Example 127]	–	77
CCCNC(=O)c1nc2c(-c3c(F)cccc3OC)c(C(F)F)ccn2c1N [Example 128, 3-Amino-7-(difluoromethyl)-8-(2-fluoro-6-methoxyphenyl)-N-propylimidazo[1,2-a]pyridine-2-carboxamide]	49	–
CCCNC(=O)c1nc2c(-c3c(F)cccc3OC)c(Cl)ccn2c1N [Example 130, 3-Amino-7-chloro-8-(2-fluoro-6-methoxyphenyl)-N-propylimidazo[1,2-a]pyridine-2-carboxamide]	53	–
COc1cccc(F)c1-c1c(F)ccn2c(N)c(C(=O)NCC=C(F)F)nc12 [Example 131, 3-Amino-N-(3,3-difluoroallyl)-7-fluoro-8-(2-fluoro-6-methoxyphenyl)imidazo[1,2-a]pyridine-2-carboxamide]	–	82
CCCNC(=O)c1nc2c(-c3c(F)cccc3OC)c(C)ccn2c1N [Example 132, 3-Amino-8-(2-fluoro-6-methoxyphenyl)-7-methyl-N-propylimidazo[1,2-a]pyridine-2-carboxamide]	48	–

Further lines, with some results ahead:

Emax at 0.1 µM [%]	SMILES	α2-GABAAR Positive allosteric modulatory activity [%]
52	CCCNC(=O)c1nc2c(-c3cc4cn(C)nc4cc3OC)cccn2c1N [Example 96, 3-Amino-8-(6-methoxy-2-methyl-2H-indazol-5-yl)-N-propylimidazo[1,2-a]pyridine-2-carboxamide]	–
52	CCCNC(=O)c1nc2c(-c3cc4cccnc4cc3OC)cccn2c1N [Example 97, 3-Amino-8-(7-methoxyquinolin-6-yl)-N-propylimidazo[1,2-a]pyridine-2-carboxamide]	–
94	CCCNC(=O)c1nc2c(-c3c(F)ccc4ncoc34)cccn2c1N [Example 100, 3-Amino-8-(6-fluorobenzoxazol-7-yl)-N-propylimidazopyridine-2-carboxamide]	–
112	CCCNC(=O)c1nc2c(-c3c(F)ccc4ccoc34)cccn2c1N [Example 101, 3-Amino-8-(6-fluorobenzofuran-7-yl)-N-propylimidazo[1,2-a]pyridine-2-carboxamide]	–
87	CCCNC(=O)c1nc2c(-c3c(OC)ccc4ccoc34)cccn2c1N [Example 103, 3-Amino-8-(6-methoxybenzofuran-7-yl)-N-propylimidazo[1,2-a]pyridine-2-carboxamide]	–
100	CCCNC(=O)c1nc2c(-c3c(F)ccc4c3OCC4)cccn2c1N [Example 106, 3-Amino-8-(6-fluoro-2,3-dihydrobenzofuran-7-yl)-N-propylimidazo[1,2-a]pyridine-2-carboxamide]	–
90	CCCNC(=O)c1nc2c(-c3c(OC)ccc4ccc(F)cc34)cccn2c1N [Example 107, 3-Amino-8-(7-fluoro-2-methoxynaphthalen-1-yl)-N-propylimidazo[1,2-a]pyridine-2-carboxamide]	–
50	CCCNC(=O)c1nc2c(-c3c(F)ccc4ccc(OC)cc34)cccn2c1N [Example 108, 3-Amino-8-(2-fluoro-7-methoxynaphthalen-1-yl)-N-propylimidazo[1,2-a]pyridine-2-carboxamide]	–
53	CCCNC(=O)c1nc2c(-c3cccnc3F)c(F)ccn2c1N [Example 112, 3-Amino-7-fluoro-8-(2-fluoropyridin-3-yl)-N-propylimidazo[1,2-a]pyridine-2-carboxamide]	–
124	CCCNC(=O)c1nc2c(-c3cnccc3OC)c(F)ccn2c1N [Example 114, 3-Amino-7-fluoro-8-(4-methoxypyridin-3-yl)-N-propylimidazo[1,2-a]pyridine-2-carboxamide]	–
123	CCCNC(=O)c1nc2c(-c3cccnc3OC)c(F)ccn2c1N [Example 115, 3-Amino-7-fluoro-8-(2-methoxypyridin-3-yl)-N-propylimidazo[1,2-A]pyridine-2-carboxamide]	–
44	CCCNC(=O)c1nc2c(-c3cnoc3C)cccn2c1N [Example 141, 3-Amino-8-(5-methyl-1,2-oxazol-4-yl)-N-propylimidazo[1,2-a]pyridine-2-carboxamide]	–
45	CCCNC(=O)c1nc2c(-c3cccnc3C)cccn2c1N [Example 142, 3-Amino-8-(2-methylpyridin-3-yl)-N-propylimidazo[1,2-a]pyridine-2-carboxamide]	–
